# Reference: patent publication US20250177412A1, “SMALL-MOLECULE INHIBITORS TARGETING THE BOB1/OCT1 INTERFACE” (NANTES UNIVERSITE, priority 2022, published 2025)
# Tests used:
# [1] = test system: mouse embryonic fibroblasts (MEFs); test: MTT assay; type: cell-based; conditions: data not shown
# B cells = test: GZMB+ B cell expansion; type: cell-based, human; conditions: 10 μM added daily, day 3
# Protocol: B cells were kept unstimulated (B resting) or stimulated (B expanded) for 24 hours with the expansion mixture containing F(ab′)2 anti-BCR, CpG ODN, CD40L, IL-2, and IL-21. FIG. 6A-B show the expression level of granzyme B measured as frequency (FIG. 6A) and by the MFI (FIG. 6B) in DMSO-treated (compound 005-) and 10 μM compound 005-treated resting (open circles) and expanded for 3 days (closed circles) B cells. […] Representative offset histogram overlays showing median fluorescence intensity of staining of gated live […] with cell proliferation dye (CPD) (FIGS. 6C, 6E and 6F). […]
# Primary total human B cells (1×10^6 cells/mL) were prestimulated for ˜24 h with the cocktail containing 10 ng/mL of IL-21 (Miltenyi Biotec), 5 μg/mL of F(ab′)2 anti-BCR Abs (Jackson ImmunoResearch Laboratories Inc.), 50 ng/ml of CD40L (R&D systems), 1 μg/mL of CpG oligonucleotides (ODN 2006, Invivogen), and 50 U/mL of IL-2 (Novartis) as previously described, in the presence of vehicle (DMSO) or 10 μM compound 005. […] The capacity of B cells to suppress effector T cell proliferation was assessed as previously described. […] T cell proliferation was evaluated as the percentage of CPD-low T cells on day 3. […]
# naïve B cells = test: In vitro plasmablast differentiation with naive B cells; type: cell-based, human; conditions: data not shown
# Excerpt: Blood samples were obtained from healthy volunteers provided by Sanquin Blood Supply Foundation (Amsterdam, the Netherlands) or from Etablissement Français du Sang (Nantes, France) after written consent was obtained. Peripheral blood mononuclear cells (PBMCs) were isolated through Ficoll-Paque gradient centrifugation on Lymphoprep (Nycomed). Total B cells were isolated from freshly purified PBMCs by negative selection (B cell Isolation Kit II; Miltenyi Biotech, 130-091-151) on magnetic columns using autoMACS Pro Separator according to the manufacturer's instructions. […] Ultimately, purity of the MACS-isolated CD19^+ B cells, CD19^+CD27^+IgD^− memory B cells and CD19^+CD27^−IgD^+ […] was assessed by flow cytometry; purity was >90% for B cells, >65% for memory B cells, and >85% for naive B cells. […]
# B cells were stimulated to differentiate into plasmablasts using a two-phase cell culture protocol as previously described. […] At days 0, 4 and 7, B cells were stained with viability marker LIVE/DEAD Fixable Aqua Dead Cell Stain (Thermofisher) to identify dead cells, followed by extracellular staining with anti-human mAbs: anti-CD20 FITC, anti-IgD BUV395, anti-CD27 BUV737, anti-CD38 BV605 (all from BD Biosciences) and analyzed by flow cytometry (FACSCelesta™, BD Biosciences). […]
smiles,measurement,setting,value
"Cc1ccc(NC(=O)C2CN(c3nc(NCCCc4ccc(F)cc4)nc(NCCC(=O)O)n3)c3ccccc3O2)cc1Cl (stereo not drawn) [compound 005, 3-((4-(2-((3-chloro-4-methylphenyl)carbamoyl)-2,3-dihydro-4H-benzo[b][1,4]oxazin-4-yl)-6-((3-(4-fluorophenyl)propyl)amino)-1,3,5-triazin-2-yl)amino)propanoic acid]",concentration showing toxicity,[1],≥ 80 µM
same,GZMB expression,B cells,did not affect
same,"effect on proliferation, CD38 and CD20 expression and plasmablast differentiation",naïve B cells,comparable dose-dependent effect
